Reference: ChEMBL document CHEMBL3797145, “Synthesis and evaluation of carbamate and aryl ether substituted pyrazinones as corticotropin releasing factor-1 (CRF₁) receptor antagonists” (Bioorg Med Chem Lett, 2016)

Legend:
[1] = target: T1, Corticotropin-releasing factor receptor 1 (Rattus norvegicus, UniProt P35353); experiment: Displacement of [125I]Tyr-ovine-CRF from CRF1 receptor in rat frontal cortex homogenate after 2 hrs by gamma counting analysis; format: tissue-based
T1 sequence (P35353 whole entry): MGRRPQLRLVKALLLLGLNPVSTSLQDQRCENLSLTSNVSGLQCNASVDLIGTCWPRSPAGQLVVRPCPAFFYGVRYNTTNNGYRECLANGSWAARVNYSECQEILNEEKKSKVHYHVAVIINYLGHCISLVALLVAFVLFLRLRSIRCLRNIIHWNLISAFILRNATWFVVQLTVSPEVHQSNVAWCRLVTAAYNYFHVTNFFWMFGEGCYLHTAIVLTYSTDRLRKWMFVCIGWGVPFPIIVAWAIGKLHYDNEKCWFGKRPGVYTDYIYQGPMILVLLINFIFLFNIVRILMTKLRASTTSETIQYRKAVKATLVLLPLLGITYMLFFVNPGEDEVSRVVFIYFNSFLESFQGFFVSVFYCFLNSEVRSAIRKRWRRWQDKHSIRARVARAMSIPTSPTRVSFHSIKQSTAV

[2] = Metabolic stability in human liver microsomes assessed as compound remaining after 10 mins; format: ADME; conditions: read-out: Stability
[3] = Metabolic stability in rat liver microsomes assessed as compound remaining after 10 mins; format: ADME; conditions: read-out: Stability
[4] = target: T2, Corticotropin-releasing factor receptor 1 (Homo sapiens) (UniProt P34998); experiment: (§1) Antagonist activity at CRF1 receptor in human Y79 cells assessed as inhibition of CRF-stimulated cAMP production preincubated for 30 mins followed by CRF addition measured after 30 mins by HTRF assay; format: functional, cell-based
T2 sequence (whole entry): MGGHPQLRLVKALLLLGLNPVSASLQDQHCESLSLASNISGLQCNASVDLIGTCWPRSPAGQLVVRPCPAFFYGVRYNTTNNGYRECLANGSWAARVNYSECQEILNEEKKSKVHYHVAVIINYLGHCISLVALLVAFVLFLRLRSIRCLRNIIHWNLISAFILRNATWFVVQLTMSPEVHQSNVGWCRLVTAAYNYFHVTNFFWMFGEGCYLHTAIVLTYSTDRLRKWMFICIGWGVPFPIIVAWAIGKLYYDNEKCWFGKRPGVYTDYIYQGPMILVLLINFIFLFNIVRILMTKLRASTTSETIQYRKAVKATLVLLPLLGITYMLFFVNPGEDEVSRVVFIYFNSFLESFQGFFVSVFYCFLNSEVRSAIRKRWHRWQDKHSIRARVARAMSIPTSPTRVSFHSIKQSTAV

[5] = target: T3, Corticotropin-releasing factor receptor 1 (Homo sapiens, UniProt P34998); experiment: as §1; format: functional, cell-based
T3 sequence (P34998 whole entry): T2 sequence (whole entry)

Structure (SMILES)	IC50 [1] [nM]	further results
COc1nc(C)c(Nc2nc(Cl)cn([C@H](COC(=O)c3ccncc3)C3CC3)c2=O)cc1C	4.9	–
COc1nc(C)c(Nc2nc(Cl)cn([C@H](COC(=O)Nc3cccc(C#N)c3)C3CC3)c2=O)cc1C	1.3	–
COc1nc(C)c(Nc2nc(Cl)cn([C@H](COc3ccc(C(F)(F)F)cn3)C3CC3)c2=O)cc1C	1.6	–
COc1nc(C)c(Nc2nc(Cl)cn([C@H](COC(C)=O)C3CC3)c2=O)cc1C	5.3	–
COc1nc(C)c(Nc2nc(Cl)cn([C@H](COC(=O)Nc3cccnc3)C3CC3)c2=O)cc1C	10	remaining at 10 min [2]: 36%; remaining at 10 min [3]: 35%
CCCNC(=O)OC[C@H](C1CC1)n1cc(Cl)nc(Nc2cc(C)c(OC)nc2C)c1=O	10	–
COc1nc(C)c(Nc2nc(Cl)cn([C@H](COc3ccc(C#N)cn3)C3CC3)c2=O)cc1C	7.7	–
COc1nc(C)c(Nc2nc(Cl)cn([C@H](COc3cc(Br)ccn3)C3CC3)c2=O)cc1C	1.5	–
COc1nc(C)c(Nc2nc(Cl)cn([C@H](COC(=O)c3ccccn3)C3CC3)c2=O)cc1C	67	–
COc1nc(C)c(Nc2nc(Cl)cn([C@H](COc3cc(C#N)ccn3)C3CC3)c2=O)cc1C	6.8	–
Cc1cc(Nc2nc(Cl)cn([C@H](COC(=O)Nc3ccccc3)C3CC3)c2=O)c(C)nc1OC(F)F	–	inhibition [4]: Dose-dependent effect; IC50 [5]: 1.2 nM; remaining at 10 min [2]: 77%; remaining at 10 min [3]: 75%
COc1ccc(NC(=O)OC[C@H](C2CC2)n2cc(Cl)nc(Nc3cc(C)c(OC)nc3C)c2=O)c(C)n1	9.2	–
COc1nc(C)c(Nc2nc(Cl)cn([C@H](CO)C3CC3)c2=O)cc1C	88	–
COc1nc(C)c(Nc2nc(Cl)cn([C@H](COC(=O)c3cccnc3)C3CC3)c2=O)cc1C	5.2	–
COc1nc(C)c(Nc2nc(Cl)cn([C@H](COC(=O)Nc3ccccc3Cl)C3CC3)c2=O)cc1C	1.5	–
COc1nc(C)c(Nc2nc(Cl)cn([C@H](COc3cccnc3)C3CC3)c2=O)cc1C	6.7	–
COc1nc(C)c(Nc2nc(Cl)cn([C@H](COC(=O)Nc3cc(Cl)cc(Cl)c3)C3CC3)c2=O)cc1C	1.7	–
COC[C@H](C1CC1)n1cc(Cl)nc(Nc2cc(C)c(OC(F)F)nc2C)c1=O	0.29	–
COc1nc(C)c(Nc2nc(Cl)cn([C@H](COC(=O)c3ccccc3)C3CC3)c2=O)cc1C	1.5	–
COc1nc(C)c(Nc2nc(Cl)cn([C@H](COC(=O)Nc3ccc(Cl)cc3)C3CC3)c2=O)cc1C	1.6	–
COc1nc(C)c(Nc2nc(Cl)cn([C@H](COc3ccccn3)C3CC3)c2=O)cc1C	1.2	–
CCNC(=O)OC[C@H](C1CC1)n1cc(Cl)nc(Nc2cc(C)c(OC)nc2C)c1=O	14	–
Cc1cc(Nc2nc(Cl)cn([C@H](COC(=O)Nc3cccnc3)C3CC3)c2=O)c(C)nc1OC(F)F	1.9	remaining at 10 min [2]: 71%; remaining at 10 min [3]: 52%
COc1nc(C)c(Nc2nc(Cl)cn([C@H](COC(=O)Nc3ccc(Cl)cc3Cl)C3CC3)c2=O)cc1C	1.7	–
COc1nc(C)c(Nc2nc(Cl)cn([C@H](COC(=O)Nc3ccccc3)C3CC3)c2=O)cc1C	1.5	remaining at 10 min [2]: 32%; remaining at 10 min [3]: 33%
